Data as given in patent publication US5936065A, “CS-1 peptidomimetics, compositions and methods of using the same” (Cytel Corporation, priority 1995, dated 1999).
Peptide text beside a SMILES is read from it.

Experiments:
mouse = details: in vivo; cited from earlier work
Jurkat T cell line = test: Binding of Jurkat cells to frozen human RA synovial sections; format: cell-based; details: 10-mer at 500 μg/ml; 896.52 at its IC50 value
Procedure: Binding studies were carried out using the Jurkat T cell line and frozen RA synovial sections. […] Stimulated MOLT-4 cells behaved similarly.
The absolute value of that IC50 value is about 0.5 μmolar.

Arg-Gly-Asp [Arg-Gly-Asp peptide]
inhibition of contact hypersensitivity / T lymphocyte recruitment to skin inflammatory sites (mouse): also inhibitory

CC[C@H](C)[C@H](NC(=O)[C@H](CCC(=O)O)NC(=O)[C@@H]1CCCN1C(=O)CN)C(=O)N[C@@H](CC(C)C)C(=O)N[C@@H](CC(=O)O)C(=O)N[C@H](C(=O)N1CCC[C@H]1C(=O)N[C@@H](CO)C(=O)N[C@H](C(=O)O)[C@@H](C)O)C(C)C [SEQ ID NO:3, GPEILDVPST] (H-GPEILDVPST-OH)
inhibition of Jurkat cell adhesion to RA synovial sections (Jurkat T cell line): could be inhibited
